# Measurements taken from ChEMBL document CHEMBL1201862, “PubChem BioAssay data set” (2004).
# “And” between values parts separate entries of the source, which are not always exact repeats. Equal entries are not always repeated. The source made the active and inactive calls.
# Experiments:
# [1] = biological target: NACHT, LRR and PYD domains-containing protein 1 (Homo sapiens, UniProt Q9C000); test: NALP1 inhibitors in yeast, dose response, luminescent (AID 488860); assay type: functional
# Saccharomyces cerevisiae = test: NALP1 inhibitor project selectivity study, Caspase-1/ASC signal blockade IC50 in S. cerevisiae (AID 488863); assay type: functional, organism-based
# [2] = biological target: T1, Oxysterols receptor LXR-beta (Homo sapiens, UniProt P55055); assay type: functional, cell-based;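 note: Cell-based luminescence dose-response assay of agonist activity at LXR, run as a confirmatory counterscreen to a daf-12 agonist screen; HEK293 cells with Gal4-LXR fusion and GAL4-driven luciferase reporter; agonist potency from rising luciferase signal of a Gal4-LXR reporter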
# T1 sequence (P55055 whole entry): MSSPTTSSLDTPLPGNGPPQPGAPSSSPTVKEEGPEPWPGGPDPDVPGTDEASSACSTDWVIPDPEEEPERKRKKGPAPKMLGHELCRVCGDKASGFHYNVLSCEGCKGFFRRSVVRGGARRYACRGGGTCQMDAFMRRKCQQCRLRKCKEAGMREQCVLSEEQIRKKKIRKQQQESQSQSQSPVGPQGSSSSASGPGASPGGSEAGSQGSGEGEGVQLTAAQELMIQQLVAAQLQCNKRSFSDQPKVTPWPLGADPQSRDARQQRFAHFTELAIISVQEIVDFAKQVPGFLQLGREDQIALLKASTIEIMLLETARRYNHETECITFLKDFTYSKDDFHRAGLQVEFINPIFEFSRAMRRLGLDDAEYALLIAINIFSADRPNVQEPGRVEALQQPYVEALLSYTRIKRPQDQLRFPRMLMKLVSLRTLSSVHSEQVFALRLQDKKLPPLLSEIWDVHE
# [3] = biological target: Nucleotide-binding oligomerization domain-containing protein 2 (Homo sapiens, UniProt Q9HC29); test: NOD2 signaling inhibitors, cell-based, luminescence, uHTS, HEK293 (AID 1566); assay type: functional
# Tumor necrosis factor = Tumor necrosis factor (Homo sapiens, UniProt P01375); test: TNFa-triggered NF-kB activation inhibitors, SAR follow-up, cell-based, revised (AID 2337); assay type: functional
# [4] = biological target: Nucleotide-binding oligomerization domain-containing protein 1 (Homo sapiens, UniProt Q9Y239); test: NOD1 signaling inhibitors, SAR follow-up, revised (AID 2333); assay type: functional
# Large T antigen = Large T antigen (Simian virus 40, UniProt P03070); assay type: functional, Betapolyomavirus macacae;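 note: Confirmatory-stage PubChem screen for compounds that inhibit SV40 T antigen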
# [5] = biological target: T2, Mitochondrial peptide methionine sulfoxide reductase (Bos taurus, UniProt P54149); test: Absorbance-based biochemical high throughput dose response assay for activators of Methionine sulfoxide reductase A (MsrA).; assay type: functional
# T2 sequence (P54149 whole entry): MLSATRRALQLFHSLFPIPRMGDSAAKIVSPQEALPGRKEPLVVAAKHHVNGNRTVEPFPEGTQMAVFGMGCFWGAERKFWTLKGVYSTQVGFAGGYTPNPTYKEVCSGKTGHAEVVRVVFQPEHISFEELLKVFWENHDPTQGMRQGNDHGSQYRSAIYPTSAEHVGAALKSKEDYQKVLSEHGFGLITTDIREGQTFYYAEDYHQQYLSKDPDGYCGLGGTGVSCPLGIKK
# [6] = biological target: Phosphoethanolamine/phosphocholine phosphatase (Homo sapiens, UniProt Q8TCT1); test: SAR assay for compounds that inhibit PHOSPHO1. [Related pubchem assays (depositor defined):AID1545, AID1565, AID1574]
# Phosphoethanolamine/phosphocholine phosphatase, sequence (Q8TCT1 whole entry): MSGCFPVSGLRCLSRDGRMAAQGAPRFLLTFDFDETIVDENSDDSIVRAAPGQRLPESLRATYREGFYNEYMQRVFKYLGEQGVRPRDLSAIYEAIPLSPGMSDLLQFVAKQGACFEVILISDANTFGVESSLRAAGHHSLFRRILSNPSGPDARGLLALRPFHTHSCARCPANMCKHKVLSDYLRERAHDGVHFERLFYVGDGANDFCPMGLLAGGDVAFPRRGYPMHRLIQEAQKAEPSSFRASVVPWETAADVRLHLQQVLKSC
# Hexokinase = biological target: T3, Hexokinase (Trypanosoma brucei, UniProt Q38C41); test: Confirmation assay for inhibitors of Trypanosoma brucei hexokinase 1-Analogue-first series. [Related pubchem assays (depositor defined):AID1430, AID1632, AID2516, AID2560, AID2579, AID2600, AID449725, AID492951]; assay type: functional
# T3 sequence (Q38C41 whole entry): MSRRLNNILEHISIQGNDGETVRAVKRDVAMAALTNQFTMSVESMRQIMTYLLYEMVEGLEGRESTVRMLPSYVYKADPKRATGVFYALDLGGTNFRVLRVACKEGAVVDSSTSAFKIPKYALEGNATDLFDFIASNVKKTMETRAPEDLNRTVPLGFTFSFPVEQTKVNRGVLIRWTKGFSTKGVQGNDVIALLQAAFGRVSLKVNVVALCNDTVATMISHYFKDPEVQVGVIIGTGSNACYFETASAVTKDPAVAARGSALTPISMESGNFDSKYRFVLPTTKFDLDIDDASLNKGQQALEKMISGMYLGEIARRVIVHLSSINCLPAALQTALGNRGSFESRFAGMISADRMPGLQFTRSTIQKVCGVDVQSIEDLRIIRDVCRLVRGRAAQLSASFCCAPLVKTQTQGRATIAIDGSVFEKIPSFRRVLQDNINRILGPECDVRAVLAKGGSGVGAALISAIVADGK
# [7] = biological target: Eukaryotic translation initiation factor 4E (Mus musculus, UniProt P63073); test: eIF4E–eIF4G protein interaction inhibitors, dose response, biochemical, TR-FRET (AID 855); assay type: functional;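 note: potency for disrupting eIF4E binding to eIF4GI seen as loss of FRET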
# [8] = biological target: T4, Mannose-6-phosphate isomerase (Homo sapiens, UniProt P34949); test: PMI enzyme inhibitors, confirmation, biochemical, fluorescence intensity (AID 1535)
# T4 sequence (P34949 whole entry): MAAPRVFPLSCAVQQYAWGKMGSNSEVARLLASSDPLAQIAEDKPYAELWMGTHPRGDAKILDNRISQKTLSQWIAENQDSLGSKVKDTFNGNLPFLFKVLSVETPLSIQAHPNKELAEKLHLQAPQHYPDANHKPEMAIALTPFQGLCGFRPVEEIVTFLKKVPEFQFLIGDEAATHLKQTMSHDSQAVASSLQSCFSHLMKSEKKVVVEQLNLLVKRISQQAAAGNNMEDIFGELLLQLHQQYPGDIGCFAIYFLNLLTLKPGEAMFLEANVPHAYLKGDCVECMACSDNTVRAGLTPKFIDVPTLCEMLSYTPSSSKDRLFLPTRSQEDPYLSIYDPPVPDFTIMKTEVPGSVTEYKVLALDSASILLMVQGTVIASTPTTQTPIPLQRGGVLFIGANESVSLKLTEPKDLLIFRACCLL
# [9] = biological target: DNA dC->dU-editing enzyme APOBEC-3G (Homo sapiens, UniProt Q9HC16); test: Dose Response confirmation of small molecule APOBEC3G DNA Deaminase Inhibitors via a fluorescence-based single-stranded DNA deaminase assay. [Related pubchem assays (depositor defined):AID493012, AID493028]; assay type: functional
# [10] = biological target: T4, Mannose-6-phosphate isomerase; test: human PMI inhibitors, high substrate, primary screen, biochemical, fluorescence intensity, high mannose 6-phosphate (AID 1220)
# [11] = biological target: T4, Mannose-6-phosphate isomerase; test: inhibitors of human PMI, primary screen, biochemical, fluorescence intensity, coupled assay (AID 1209)
# [12] = biological target: T4, Mannose-6-phosphate isomerase; test: Confirmation of compounds inhibiting phosphomannose isomerase (PMI) via a fluorescence intensity assay using a high concentration of mannose 6-phosphate. [Related pubchem assays (depositor defined):AID1209, AID1220, AID1545, AID1553, AID1620]
# [13] = biological target: Glucose-6-phosphate 1-dehydrogenase (Homo sapiens, UniProt P11413); test: human G6PD enzyme inhibitors, dose response, selectivity assay for P. falciparum G6PD inhibitor project, biochemical, fluorescence (AID 504792); assay type: functional
# Glucose-6-phosphate 1-dehydrogenase, sequence (P11413 whole entry): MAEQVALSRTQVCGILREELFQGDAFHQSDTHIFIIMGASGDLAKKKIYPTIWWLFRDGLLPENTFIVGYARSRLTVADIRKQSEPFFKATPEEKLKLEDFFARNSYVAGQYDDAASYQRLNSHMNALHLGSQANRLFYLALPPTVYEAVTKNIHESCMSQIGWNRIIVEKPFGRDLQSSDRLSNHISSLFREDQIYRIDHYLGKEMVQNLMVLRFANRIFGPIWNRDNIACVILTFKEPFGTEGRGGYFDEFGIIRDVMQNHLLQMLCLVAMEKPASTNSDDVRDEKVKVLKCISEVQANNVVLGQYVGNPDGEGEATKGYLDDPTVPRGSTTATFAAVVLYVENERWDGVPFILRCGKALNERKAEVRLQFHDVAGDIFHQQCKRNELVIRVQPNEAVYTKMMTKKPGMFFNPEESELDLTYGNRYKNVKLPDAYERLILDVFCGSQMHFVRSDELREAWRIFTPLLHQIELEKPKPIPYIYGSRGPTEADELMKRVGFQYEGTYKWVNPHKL
# Phosphomannomutase 2 = Phosphomannomutase 2 (Homo sapiens, UniProt O15305); test: Counter screen SAR assay for PMM2 inhibitors via a fluorescence intensity assay. [Related pubchem assays (depositor defined):AID1545, AID1574]
# Phosphomannomutase 2, sequence (O15305 whole entry): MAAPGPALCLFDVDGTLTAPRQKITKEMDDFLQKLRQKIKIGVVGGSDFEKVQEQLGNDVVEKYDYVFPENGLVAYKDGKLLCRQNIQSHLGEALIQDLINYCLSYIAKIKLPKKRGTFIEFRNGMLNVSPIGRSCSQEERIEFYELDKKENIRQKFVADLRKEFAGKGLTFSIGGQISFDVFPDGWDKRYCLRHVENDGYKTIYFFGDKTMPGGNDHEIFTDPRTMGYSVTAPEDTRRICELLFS
# [14] = biological target: Voltage-dependent T-type calcium channel subunit alpha-1H (Homo sapiens, UniProt O95180); test: Cav3.2 T-type channel inhibitors, cell-based, synthetic library set 1, calcium flux (AID 493022); assay type: functional
# [15] = biological target: Type-1 angiotensin II receptor (Homo sapiens, UniProt P30556); test: AT1 receptor agonists, dose response, selectivity assay for APJ receptor agonist project, cell-based, uHTS hits (AID 488865); assay type: functional;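 note: beta-arrestin recruitment to AT1 measured by enzyme fragment complementation luminescence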
# [16] = biological target: T5, Tyrosine-protein phosphatase non-receptor type 7 (Homo sapiens, UniProt P35236); test: redox-dependent HePTP inhibition, mechanism study, biochemical, fluorescence (AID 2068); assay type: functional
# T5 sequence (P35236 whole entry): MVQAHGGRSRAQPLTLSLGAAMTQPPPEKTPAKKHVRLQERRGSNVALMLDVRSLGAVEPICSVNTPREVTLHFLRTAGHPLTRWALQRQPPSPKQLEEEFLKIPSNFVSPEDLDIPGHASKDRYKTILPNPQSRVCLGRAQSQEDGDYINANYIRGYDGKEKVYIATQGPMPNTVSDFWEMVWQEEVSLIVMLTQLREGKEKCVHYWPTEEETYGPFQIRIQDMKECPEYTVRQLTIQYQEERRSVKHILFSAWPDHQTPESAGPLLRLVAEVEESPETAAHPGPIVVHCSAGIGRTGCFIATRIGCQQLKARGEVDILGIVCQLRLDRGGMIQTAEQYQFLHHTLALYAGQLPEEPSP
# HEK293 [17] = test: NOD2 signaling inhibitors in MDP-stimulated cells, cell-based, uHTS, luminescence (AID 2001); assay type: functional; details: Homo sapiens
# [18] = biological target: T6, Carboxy-terminal domain RNA polymerase II polypeptide A small phosphatase 1 (Homo sapiens, UniProt Q9GZU7); test: inhibitors of CTDSP1, concentration-response testing, biochemical assay, absorbance-based, actives from ultra-high-throughput screening (AID 540297); assay type: functional
# T6 sequence (Q9GZU7 whole entry): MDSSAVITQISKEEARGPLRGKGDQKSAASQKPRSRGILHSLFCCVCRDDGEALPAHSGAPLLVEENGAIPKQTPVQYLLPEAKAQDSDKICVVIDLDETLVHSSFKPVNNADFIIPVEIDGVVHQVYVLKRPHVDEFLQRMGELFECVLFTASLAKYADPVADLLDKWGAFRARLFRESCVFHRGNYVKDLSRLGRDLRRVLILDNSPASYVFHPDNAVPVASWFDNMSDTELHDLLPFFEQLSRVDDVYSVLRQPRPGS
# HEK293 [19] = test: cells; assay type: functional, cell-based; details: Homo sapiens
# [20] = biological target: T7, Voltage-gated N-type calcium channel alpha-1B subunit/Amyloid beta A4 precursor protein-binding family A member 1 (Homo sapiens, UniProt Q00975+Q02410); assay type: protein assay
# T7 sequence (Q00975 whole entry): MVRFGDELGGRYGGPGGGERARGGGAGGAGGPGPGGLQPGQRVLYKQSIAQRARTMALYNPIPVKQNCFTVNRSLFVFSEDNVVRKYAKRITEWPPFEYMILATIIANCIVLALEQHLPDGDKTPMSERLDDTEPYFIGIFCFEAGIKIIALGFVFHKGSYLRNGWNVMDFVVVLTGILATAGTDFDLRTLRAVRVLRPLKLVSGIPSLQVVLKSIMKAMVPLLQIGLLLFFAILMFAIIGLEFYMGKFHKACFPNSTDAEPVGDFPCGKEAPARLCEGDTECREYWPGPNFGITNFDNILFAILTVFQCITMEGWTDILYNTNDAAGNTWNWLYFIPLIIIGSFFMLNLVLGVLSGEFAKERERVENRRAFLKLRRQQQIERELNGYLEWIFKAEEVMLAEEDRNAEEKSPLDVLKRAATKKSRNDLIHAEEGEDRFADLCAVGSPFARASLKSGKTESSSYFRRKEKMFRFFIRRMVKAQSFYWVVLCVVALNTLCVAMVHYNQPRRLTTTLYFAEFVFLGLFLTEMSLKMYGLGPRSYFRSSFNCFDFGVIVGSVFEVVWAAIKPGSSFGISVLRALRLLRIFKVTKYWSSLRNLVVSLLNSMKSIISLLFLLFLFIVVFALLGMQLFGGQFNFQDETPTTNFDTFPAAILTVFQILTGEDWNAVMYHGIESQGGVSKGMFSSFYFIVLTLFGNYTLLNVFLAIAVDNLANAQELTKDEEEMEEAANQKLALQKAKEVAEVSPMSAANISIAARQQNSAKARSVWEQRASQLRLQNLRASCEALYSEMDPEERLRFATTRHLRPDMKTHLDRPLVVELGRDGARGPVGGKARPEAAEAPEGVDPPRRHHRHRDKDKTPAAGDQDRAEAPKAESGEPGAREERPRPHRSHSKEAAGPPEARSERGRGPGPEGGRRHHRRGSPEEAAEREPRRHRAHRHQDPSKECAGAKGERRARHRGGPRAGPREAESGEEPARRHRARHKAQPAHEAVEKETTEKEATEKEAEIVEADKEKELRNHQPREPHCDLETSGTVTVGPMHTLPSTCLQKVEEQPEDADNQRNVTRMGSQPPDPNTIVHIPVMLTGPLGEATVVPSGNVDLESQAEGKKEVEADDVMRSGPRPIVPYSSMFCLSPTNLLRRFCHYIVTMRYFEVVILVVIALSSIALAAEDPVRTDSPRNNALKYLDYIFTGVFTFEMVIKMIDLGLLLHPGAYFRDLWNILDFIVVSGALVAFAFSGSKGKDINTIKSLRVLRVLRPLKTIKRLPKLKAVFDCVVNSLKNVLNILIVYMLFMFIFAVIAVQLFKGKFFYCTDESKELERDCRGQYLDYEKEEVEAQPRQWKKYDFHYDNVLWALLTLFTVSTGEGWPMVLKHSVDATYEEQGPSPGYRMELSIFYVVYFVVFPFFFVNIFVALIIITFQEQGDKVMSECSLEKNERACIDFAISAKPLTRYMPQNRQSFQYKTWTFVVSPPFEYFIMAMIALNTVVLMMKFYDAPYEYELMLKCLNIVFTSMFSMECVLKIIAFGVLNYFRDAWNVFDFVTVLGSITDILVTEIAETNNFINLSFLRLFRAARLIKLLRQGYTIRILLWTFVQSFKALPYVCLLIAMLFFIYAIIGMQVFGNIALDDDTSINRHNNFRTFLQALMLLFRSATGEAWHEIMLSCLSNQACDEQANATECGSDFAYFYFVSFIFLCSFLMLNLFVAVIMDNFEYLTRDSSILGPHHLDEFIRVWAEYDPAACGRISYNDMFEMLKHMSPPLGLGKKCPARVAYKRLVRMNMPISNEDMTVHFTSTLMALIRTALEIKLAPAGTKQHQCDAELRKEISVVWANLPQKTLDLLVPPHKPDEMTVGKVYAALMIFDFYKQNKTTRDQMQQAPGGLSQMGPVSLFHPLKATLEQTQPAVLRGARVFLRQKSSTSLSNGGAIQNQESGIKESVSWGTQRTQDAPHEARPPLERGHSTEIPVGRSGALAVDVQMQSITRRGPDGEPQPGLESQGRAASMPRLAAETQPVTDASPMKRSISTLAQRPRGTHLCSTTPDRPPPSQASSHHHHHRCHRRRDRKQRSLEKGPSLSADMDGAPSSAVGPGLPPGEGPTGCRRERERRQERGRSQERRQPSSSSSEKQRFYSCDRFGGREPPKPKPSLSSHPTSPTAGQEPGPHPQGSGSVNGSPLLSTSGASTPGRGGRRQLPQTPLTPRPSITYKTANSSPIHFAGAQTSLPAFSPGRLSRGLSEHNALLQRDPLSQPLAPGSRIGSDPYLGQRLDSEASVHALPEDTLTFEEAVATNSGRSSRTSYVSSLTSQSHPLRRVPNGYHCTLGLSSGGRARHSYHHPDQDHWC
# T7 sequence (Q02410 whole entry): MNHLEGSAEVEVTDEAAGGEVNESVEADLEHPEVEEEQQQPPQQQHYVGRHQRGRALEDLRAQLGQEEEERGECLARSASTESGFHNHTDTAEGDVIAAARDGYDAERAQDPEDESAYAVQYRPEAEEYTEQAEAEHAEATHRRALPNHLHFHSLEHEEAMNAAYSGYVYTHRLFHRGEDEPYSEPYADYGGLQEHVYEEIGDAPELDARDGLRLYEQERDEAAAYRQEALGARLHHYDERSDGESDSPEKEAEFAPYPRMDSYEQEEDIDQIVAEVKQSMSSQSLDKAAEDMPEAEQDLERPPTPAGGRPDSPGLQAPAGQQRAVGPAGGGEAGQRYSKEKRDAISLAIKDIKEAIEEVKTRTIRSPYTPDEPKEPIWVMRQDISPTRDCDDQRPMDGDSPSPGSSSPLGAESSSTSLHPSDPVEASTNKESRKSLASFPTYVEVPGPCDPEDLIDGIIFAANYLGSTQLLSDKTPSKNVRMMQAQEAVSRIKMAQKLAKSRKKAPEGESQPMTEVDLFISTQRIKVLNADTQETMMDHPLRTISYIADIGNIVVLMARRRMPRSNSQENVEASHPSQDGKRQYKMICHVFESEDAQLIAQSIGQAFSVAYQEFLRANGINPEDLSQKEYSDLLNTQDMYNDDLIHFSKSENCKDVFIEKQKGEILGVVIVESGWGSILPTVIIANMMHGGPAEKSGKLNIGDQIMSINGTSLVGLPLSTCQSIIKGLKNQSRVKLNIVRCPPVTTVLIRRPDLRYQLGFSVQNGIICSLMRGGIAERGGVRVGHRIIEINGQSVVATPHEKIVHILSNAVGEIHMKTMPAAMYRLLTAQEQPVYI
# [21] = biological target: T7, Voltage-gated N-type calcium channel alpha-1B subunit/Amyloid beta A4 precursor protein-binding family A member 1; assay type: protein assay; remark: listed apart in the source
# HEK293 [22] = test: cells; assay type: functional, cell-based; details: Homo sapiens; remark: listed apart in the source
# HEK293 [23] = test: NOD1 signaling inhibitors, primary screen, cell-based, luminescence, uHTS (AID 1578); assay type: functional; details: Homo sapiens
# [24] = biological target: T8, Runt-related transcription factor 1/Core-binding factor subunit beta (Homo sapiens, UniProt Q01196+Q13951); test: inhibitors of RUNX1 Runt–CBFb-SMMHC binding, primary screen, biochemical, FRET, Cerulean-Runt, Venus-CBFb-SMMHC, uHTS (AID 1434); assay type: protein assay;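 note: partner is the CBFb-SMMHC leukemia fusion protein rather than wild-type CBFb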
# T8 sequence (Q01196 whole entry, the tested form may be a part): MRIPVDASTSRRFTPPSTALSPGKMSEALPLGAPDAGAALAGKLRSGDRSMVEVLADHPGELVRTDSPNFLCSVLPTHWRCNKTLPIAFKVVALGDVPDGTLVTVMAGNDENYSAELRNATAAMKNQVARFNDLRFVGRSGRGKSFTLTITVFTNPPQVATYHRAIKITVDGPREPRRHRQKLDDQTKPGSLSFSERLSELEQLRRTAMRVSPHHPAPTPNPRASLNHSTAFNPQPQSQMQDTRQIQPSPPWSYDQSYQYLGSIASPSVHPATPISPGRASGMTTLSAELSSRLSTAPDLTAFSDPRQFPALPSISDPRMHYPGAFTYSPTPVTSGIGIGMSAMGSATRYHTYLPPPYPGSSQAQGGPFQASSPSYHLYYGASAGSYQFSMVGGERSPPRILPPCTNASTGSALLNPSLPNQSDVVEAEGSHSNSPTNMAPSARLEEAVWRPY
# T8 sequence (Q13951 whole entry, the tested form may be a part): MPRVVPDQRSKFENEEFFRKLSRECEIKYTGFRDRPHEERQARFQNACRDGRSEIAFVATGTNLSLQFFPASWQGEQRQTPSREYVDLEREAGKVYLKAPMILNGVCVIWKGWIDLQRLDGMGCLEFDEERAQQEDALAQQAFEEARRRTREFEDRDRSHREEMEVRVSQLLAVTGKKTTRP
# [25] = biological target: T8, Runt-related transcription factor 1/Core-binding factor subunit beta; test: inhibitors of RUNX1 Runt–CBFb-SMMHC binding, biochemical, TR-FRET (AID 1438); assay type: protein assay
# [26] = cytotoxicity in MIN6 insulinoma cells, dose response, cytotoxicity control, cell-based, mouse insulinoma (AID 2122); assay type: functional;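 note: confirmatory high-throughput counterscreen run to flag cytotoxic compounds; mouse MIN-6 beta cells carrying an insulin promoter eGFP reporter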
# [27] = inhibitors of Ran–importin-beta complex, dose response, biochemical, plate reader, dry powder (AID 493048); design: species or system Homo sapiens
# [28] = cytotoxicity toward NIH3T3 fibroblasts, dose response, counter-screen, cell-based, ATP luminescence, mouse fibroblasts (AID 2010); assay type: functional;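 note: cells exposed to compound for about 90 hours before reading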
# Importin subunit alpha-1 = Importin subunit alpha-1 (Homo sapiens, UniProt P52292); test: YIC FRET probe signal interference, dose response, counter-screen for RanGTP-importin-beta inhibitor project, biochemical, dry powder samples (AID 493094); assay type: functional
# [29] = inhibitors of intracellular T. cruzi replication, confirmation, NIH3T3 host cells, beta-gal luminescence (AID 2044); assay type: functional, cell-based;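 note: intracellular parasites grown in NIH/3T3 mouse fibroblasts as host cells; luminescent beta-galactosidase reporter signal from transgenic T. cruzi replicating inside host cells; inhibitors lower the luminescence signal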
# [30] = insulin promoter down-regulators in MIN6 cells, imaging, high-content screening, mouse beta cells (AID 1628); assay type: functional
smiles,measurement,setting,value
CSc1nnc(-c2cc3c(s2)-c2ccccc2CC3)o1,IC50,[1],> 100 µM (inactive)
same,IC50,Saccharomyces cerevisiae,> 100 µM (inactive)
same,EC50,cells,> 67.5 µM (inactive)
same,EC50,[2],> 67.5 µM (inactive)
O=C(CSc1nc2scc(-c3ccccc3)c2c(=O)[nH]1)Nc1ccccc1,EC50,[3],0.95 µM (active)
same,IC50,Tumor necrosis factor,1.96 µM (active)
same,IC50,[4],2.83 µM (active)
CN(C)S(=O)(=O)c1cccc(-n2sc3ccccc3c2=O)c1,IC50,Large T antigen,13.3 µM (active)
same,EC50,[5],> 104 µM (inactive)
same,IC50,[6],495 nM (active) and 457 nM (active)
same,IC50,Hexokinase,7.63 µM (active)
same,IC50,[7],13 µM (active)
same,IC50,[8],2.79 µM (active) and 7.06 µM (active)
same,IC50,[9],9.11 µM (active)
same,IC50,[10],11.7 µM (active)
same,IC50,[11],5.25 µM (active)
same,IC50,[12],16.4 µM (active)
same,IC50,[13],12.4 µM (active)
same,IC50,Phosphomannomutase 2,13.5 µM (active) and 12.9 µM (active)
CC(Oc1ccccc1)C(=O)Nc1nnc(-c2ccc3ccccc3c2)o1 (configuration not stated),EC50,[14],2.7 µM (active)
NC(=NOS(=O)(=O)c1ccc2ccccc2c1)c1ccncc1,EC50,[15],> 100 µM (inactive)
O=C(Nc1ccc2nc(-c3ccco3)c(-c3ccco3)nc2c1)Nc1cccc2ccccc12,IC50,[16],1.26 µM (active)
COc1ccc2cc3c(N)nn(C(=O)c4ccc(Cl)c([N+](=O)[O-])c4)c3nc2c1,IC50,HEK293 [17],2.29 µM (active)
same,IC50,[18],1.72 µM (active)
same,IC50,HEK293 [19],1.71 µM (active)
same,IC50,[20],28.7 µM (active)
same,IC50,[21],16.1 µM (active)
same,IC50,HEK293 [22],> 20 µM (inactive)
same,EC50,HEK293 [23],3.5 µM (active)
COc1ccc(OC)c(S(=O)(=O)N(C(C)=O)c2ccc3oc(=O)sc3c2)c1,IC50,[24],> 100 µM (inactive)
same,IC50,[25],> 100 µM (inactive)
CCOCCCn1c(=N)c(C(=O)NCc2ccc3c(c2)OCO3)cc2c(=O)n3cccc(C)c3nc21,IC50,[26],5.17 µM (active)
same,AC50,[27],227 µM (active)
same,EC50,[28],> 60 µM (not active)
same,AC50,Importin subunit alpha-1,135 µM (active)
same,EC50,[29],1.27 µM (active)
same,IC50,[30],1.54 µM (active)
